Test [1] concerns the target human recombinant FLT3 (Homo sapiens (Human), UniProt P36888). Description: FLT3 Kinase Assay (Caliper mobility shift). Format: biochemical. Particulars: for IC50: 100 μM ATP, 28° C., 90 minutes, read-out: Enzyme IC50 (μM) FLT3; for inhibition at 10 µM: 10 μM test compound, reported where IC50 was not determined, read-out: % inhibition of FLT3 at 10 μM test compound concentration. The protocol: After incubation, the reaction product was analyzed by electrophoretic mobility shift run on Caliper by manufacturer's protocol.

Test [2] has as its system Molm13 cells. Kind of test: Cell Glo Viability Assay (Luminescence), Molm13. Format: cell-based. The settings on record: Homo sapiens, MOLM-13, 120 h, 5 days, CellTiter-Glo, read-out: Cellular EC50 (μM) Molm13. The protocol: (§1) Molm13 cells, a human acute monocytic leukemia cell line, and MV4-11 cells, a human leukemia cell line known to express mutated FLT3 cells (both from ATCC) were seeded separately at 2000 cells per well in 90 μL of RPMI1640 medium supplemented with 10% FBS in 96-well black-walled plates (BD Falcon). Test compounds were diluted at ten times of assay concentrations, 10 μL was added into duplicate wells. Plates were incubated at 37° C. with 5% CO2 for 5 days. Cell viability was assayed by CellTiter-Glo® Luminescent Cell Viability Assay (Promega) following manufacturer's protocol.
(§2) The results of this assay, given as EC50 values, indicate the concentration of test compound that inhibits tumor cell proliferation by 50%.
On the technique in general: Cellular ATP, detected with luciferase, serves as a proxy for viable cell number.

Test [3] relates to MV4-11 cells. Kind of test: Cell Glo Viability Assay (Luminescence), MV4-11. The settings on record: Homo sapiens, 120 h; MV4-11 cells (mutated FLT3), 5 days, CellTiter-Glo; read-out: Cellular EC50 (μM) MV4-11. Type of test: cell-based. The protocol: as §1, §2

Broadly, the IC50 is the concentration that inhibits the measured activity by half. In general, EC50 refers to the concentration giving half of the maximal effect.

Counter-ions that a name gives are not always drawn.

Sequence of human recombinant FLT3 (P36888 27-993): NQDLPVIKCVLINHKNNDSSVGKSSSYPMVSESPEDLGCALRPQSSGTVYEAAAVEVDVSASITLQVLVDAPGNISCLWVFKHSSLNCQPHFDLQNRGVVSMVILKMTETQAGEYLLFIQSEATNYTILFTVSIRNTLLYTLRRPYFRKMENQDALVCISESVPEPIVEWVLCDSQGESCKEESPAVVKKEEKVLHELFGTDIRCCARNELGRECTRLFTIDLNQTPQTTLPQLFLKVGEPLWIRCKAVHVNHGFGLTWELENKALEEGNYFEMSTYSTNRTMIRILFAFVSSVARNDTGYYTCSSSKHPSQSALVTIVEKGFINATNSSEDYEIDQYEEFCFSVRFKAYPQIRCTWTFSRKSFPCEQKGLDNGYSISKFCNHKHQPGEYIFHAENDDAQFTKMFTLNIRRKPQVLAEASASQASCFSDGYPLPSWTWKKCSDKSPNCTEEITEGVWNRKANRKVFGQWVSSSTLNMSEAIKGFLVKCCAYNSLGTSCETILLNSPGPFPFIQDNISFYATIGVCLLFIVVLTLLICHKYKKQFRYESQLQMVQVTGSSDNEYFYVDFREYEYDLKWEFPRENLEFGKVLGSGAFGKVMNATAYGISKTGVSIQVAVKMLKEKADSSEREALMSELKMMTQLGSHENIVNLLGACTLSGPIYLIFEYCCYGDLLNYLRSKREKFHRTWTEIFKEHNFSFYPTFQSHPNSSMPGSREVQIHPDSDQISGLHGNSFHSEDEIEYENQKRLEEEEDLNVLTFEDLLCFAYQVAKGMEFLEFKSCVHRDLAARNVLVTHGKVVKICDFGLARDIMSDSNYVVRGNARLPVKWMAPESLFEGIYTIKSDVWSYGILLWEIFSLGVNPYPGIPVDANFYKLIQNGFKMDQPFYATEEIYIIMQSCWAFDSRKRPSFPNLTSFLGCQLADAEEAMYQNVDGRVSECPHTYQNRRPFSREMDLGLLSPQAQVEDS

As for `CNc1nccn2c(-c3ccnc(Nc4ccccc4)n3)cnc12` [Example 20, Methyl-[3-(2-phenylamino-pyrimidin-4-yl)-imidazo[1,2-a]pyrazin-8-yl]-amine], the IC50 in test [1] was < 0.005 µM. In addition, the half-maximal effective concentration (EC50) came to 0.052 µM in test [2] and 0.041 µM in test [3].
`CNc1nccc(-c2cnc3c(NC4CCNCC4)nccn23)n1` [Example 26, [3-(2-Methylamino-pyrimidin-4-yl)-imidazo[1,2-a]pyrazin-8-yl]-piperidin-4-yl-amine]: the 50% effective concentration (EC50) is 2.56 µM in test [2] and 1.12 µM in test [3].
Take `CC(C)Nc1nccc(-c2cnc3c(NCCO)nccn23)n1` [Example 30, 2-[3-(2-Isopropylamino-pyrimidin-4-yl)-imidazo[1,2-a]pyrazin-8-ylamino]-ethanol]: the concentration for a half-maximal effect (EC50) in test [2] was 2.19 µM; in test [3] it was 0.745 µM.
As for `CN1CCN(c2nccn3c(-c4ccnc(NCc5ccc(Cl)cc5)n4)cnc23)CC1` [Example 59, (4-Chloro-benzyl)-{4-[8-(4-methyl-piperazin-1-yl)-imidazo[1,2-a]pyrazin-3-yl]-pyrimidin-2-yl}-amine; hydrochloride], the inhibition at 10 µM in test [1] is 29.2%.
On the same count and under the same terms, under `CN1CCN(c2nccn3c(-c4ccnc(NCc5cccs5)n4)cnc23)CC1` [Example 64, {4-[8-(4-Methyl-piperazin-1-yl)-imidazo[1,2-a]pyrazin-3-yl]-pyrimidin-2-yl}-thiophen-2-ylmethyl-amine; hydrochloride] stands 33.5%.
As for `N[C@H]1CC[C@H](Nc2nccn3c(-c4ccnc(NCc5cccc(Cl)c5)n4)cnc23)CC1` [Example 67, N-{3-[2-(3-Chloro-benzylamino)-pyrimidin-4-yl]-imidazo[1,2-a]pyrazin-8-yl}-cyclohexane-1,4-diamine; hydrochloride], the IC50 in test [1] is < 0.005 µM. The results for the concentration for a half-maximal effect (EC50) in test [2] and in test [3] were 0.049 µM and 0.017 µM, respectively.
As for `N[C@H]1CC[C@H](Nc2nccn3c(-c4ccnc(NCc5ccccc5)n4)cnc23)CC1` [Example 68, N-[3-(2-Benzylamino-pyrimidin-4-yl)-imidazo[1,2-a]pyrazin-8-yl]-cyclohexane-1,4-diamine; hydrochloride], the IC50 in test [1] was < 0.005 µM. Moreover, the half-maximal effective concentration (EC50) turned out to be 0.061 µM in test [2] and 0.052 µM in test [3].
Take `CN1CCN(c2nccn3c(-c4cccc(NCc5ccc(Cl)cc5)n4)cnc23)CC1` [Example 71, (4-Chloro-benzyl)-{6-[8-(4-methyl-piperazin-1-yl)-imidazo[1,2-a]pyrazin-3-yl]-pyridin-2-yl}-amine; hydrochloride]: the inhibition at 10 µM in test [1] amounted to 13.2%.
Consider `c1ccc(CNc2nccc(-c3cnc4c(NCCN5CCOCC5)nccn34)n2)cc1` [Example 72, [3-(2-Benzylamino-pyrimidin-4-yl)-imidazo[1,2-a]pyrazin-8-yl]-(2-morpholin-4-yl-ethyl)-amine; hydrochloride], for which the 50% effective concentration (EC50) was 0.171 µM in test [2] and 0.124 µM in test [3].
For `N[C@H]1CC[C@H](Nc2nccn3c(-c4cccc(NCc5ccccc5)n4)cnc23)CC1` [Example 73, N-[3-(6-Benzylamino-pyridin-2-yl)-imidazo[1,2-a]pyrazin-8-yl]-cyclohexane-1,4-diamine; hydrochloride], in that order: 0.077 µM and 0.04 µM.
For the compound `CN1CCN(c2nccn3c(-c4ccnc(NC(CN)c5ccsc5)n4)cnc23)CC1` (stereo not drawn) [Example 75, N1-{4-[8-(4-Methyl-piperazin-1-yl)-imidazo[1,2-a]pyrazin-3-yl]-pyrimidin-2-yl}-1-thiophen-3-yl-ethane-1,2-diamine; hydrochloride], the concentration giving a half-maximal response (EC50) in test [2] was 1.69 µM; in test [3], 0.878 µM.
Turning to `NCCC(Nc1nccc(-c2cnc3c(N[C@H]4CC[C@H](N)CC4)nccn23)n1)c1ccccc1` (stereo partly drawn) [Example 76, N-{3-[2-(3-Amino-1-phenyl-propylamino)-pyrimidin-4-yl]-imidazo[1,2-a]pyrazin-8-yl}-cyclohexane-1,4-diamine; hydrochloride], the half-maximal inhibitory concentration (IC50) in test [1] was < 0.005 µM. The values for the EC50 in test [2] and in test [3] were 0.301 µM and 0.232 µM, respectively.
For the compound `NCC(Nc1nccc(-c2cnc3c(N[C@H]4CC[C@H](N)CC4)nccn23)n1)c1ccccc1` (stereo partly drawn) [Example 77, N-{3-[2-(2-Amino-1-phenyl-ethylamino)-pyrimidin-4-yl]-imidazo[1,2-a]pyrazin-8-yl}-cyclohexane-1,4-diamine; hydrochloride], the concentration for half-maximal inhibition (IC50) in test [1] was < 0.005 µM. For the same compound, the concentration for a half-maximal effect (EC50) in test [2] amounted to 0.08 µM; in test [3] it was 0.015 µM.
In the case of `CN1CCN(c2nccn3c(-c4ccnc(NC(CN)c5cccc(Cl)c5)n4)cnc23)CC1` (stereo not drawn) [Example 79, 1-(3-Chloro-phenyl)-N1-{4-[8-(4-methyl-piperazin-1-yl)-imidazo[1,2-a]pyrazin-3-yl]-pyrimidin-2-yl}-ethane-1,2-diamine; hydrochloride], the values for the EC50 in test [2] and in test [3] were 1.97 µM and 1.01 µM, respectively.
Consider `NCC(Nc1cccc(-c2cnc3c(N[C@H]4CC[C@H](N)CC4)nccn23)n1)c1ccccc1` (stereo partly drawn) [Example 80, N-{3-[6-(2-Amino-1-phenyl-ethylamino)-pyridin-2-yl]-imidazo[1,2-a]pyrazin-8-yl}-cyclohexane-1,4-diamine; hydrochloride], for which the IC50 in test [1] is < 0.005 µM. Also, the EC50 in test [2] is 0.041 µM; in test [3] it was < 0.014 µM.
As to `NCCC(Nc1cccc(-c2cnc3c(N[C@H]4CC[C@H](N)CC4)nccn23)n1)c1ccccc1` (stereo partly drawn) [Example 81, N-{3-[6-(3-Amino-1-phenyl-propylamino)-pyridin-2-yl]-imidazo[1,2-a]pyrazin-8-yl}-cyclohexane-1,4-diamine; hydrochloride], the concentration giving a half-maximal response (EC50) in test [2] turned out to be 0.255 µM; in test [3], 0.288 µM.
For `N[C@H]1CC[C@H](Nc2nccn3c(-c4cccc(NCc5cccc(Cl)c5)n4)cnc23)CC1` [Example 82, N-{3-[6-(3-Chloro-benzylamino)-pyridin-2-yl]-imidazo[1,2-a]pyrazin-8-yl}-cyclohexane-1,4-diamine; hydrochloride], in that order: 0.119 µM and 0.049 µM.
Turning to `N[C@H]1CC[C@H](Nc2nccn3c(-c4ccnc(NCc5ccccc5Cl)n4)cnc23)CC1` [Example 83, N-{3-[2-(2-Chloro-benzylamino)-pyrimidin-4-yl]-imidazo[1,2-a]pyrazin-8-yl}-cyclohexane-1,4-diamine; hydrochloride], in test [1], the IC50 is < 0.005 µM. In addition, the half-maximal effective concentration (EC50) came out at 0.021 µM in test [2] and 0.016 µM in test [3].
Take `N[C@H]1CC[C@H](Nc2nccn3c(-c4cccc(NCc5ccsc5)n4)cnc23)CC1` [Example 84, N-(3-{6-[(Thiophen-3-ylmethyl)-amino]-pyridin-2-yl}-imidazo[1,2-a]pyrazin-8-yl)-cyclohexane-1,4-diamine; hydrochloride]: the concentration for half-maximal inhibition (IC50) in test [1] was < 0.005 µM. The concentration giving a half-maximal response (EC50) in test [2] came to 0.056 µM; in test [3] it was 0.068 µM.
Take `N[C@H]1CC[C@H](Nc2nccn3c(-c4cccc(NCc5ccccc5Cl)n4)cnc23)CC1` [Example 85, N-{3-[6-(2-Chloro-benzylamino)-pyridin-2-yl]-imidazo[1,2-a]pyrazin-8-yl}-cyclohexane-1,4-diamine; hydrochloride]: the IC50 in test [1] was < 0.005 µM. In addition, the EC50 in test [2] and in test [3] was < 0.014 µM throughout.
On to `N[C@H]1CC[C@H](Nc2nccn3c(-c4cccc(NCc5ccc(Cl)cc5)n4)cnc23)CC1` [Example 86, N-{3-[6-(4-Chloro-benzylamino)-pyridin-2-yl]-imidazo[1,2-a]pyrazin-8-yl}-cyclohexane-1,4-diamine; hydrochloride], for which the EC50 in test [2] was 0.353 µM; in test [3], 0.385 µM.
With `N[C@H]1CC[C@H](Nc2nccn3c(-c4cccc(NCc5cccs5)n4)cnc23)CC1` [Example 87, N-(3-{6-[(Thiophen-2-ylmethyl)-amino]-pyridin-2-yl}-imidazo[1,2-a]pyrazin-8-yl)-cyclohexane-1,4-diamine; hydrochloride], the results for the half-maximal effective concentration (EC50) in test [2] and in test [3] were 0.074 µM and 0.07 µM, respectively.
Take `Clc1ccccc1CNc1nccc(-c2cnc3c(NCCN4CCOCC4)nccn23)n1` [Example 88, {3-[2-(2-Chloro-benzylamino)-pyrimidin-4-yl]-imidazo[1,2-a]pyrazin-8-yl}-(2-morpholin-4-yl-ethyl)-amine; hydrochloride]: the EC50 in test [2] came to 0.037 µM; in test [3], 0.055 µM.
On to `Clc1cccc(CNc2nccc(-c3cnc4c(NCCN5CCOCC5)nccn34)n2)c1` [Example 89, {3-[2-(3-Chloro-benzylamino)-pyrimidin-4-yl]-imidazo[1,2-a]pyrazin-8-yl}-(2-morpholin-4-yl-ethyl)-amine; hydrochloride], for which the EC50 in test [2] worked out at 0.075 µM; in test [3], 0.06 µM.
Consider `NCCC(Nc1cccc(-c2cnc3c(NCCN4CCOCC4)nccn23)n1)c1cccc(Cl)c1` (stereo not drawn) [Example 90, 1-(3-Chloro-phenyl)-N-1-{6-[8-(2-morpholin-4-yl-ethylamino)-imidazo[1,2-a]pyrazin-3-yl]-pyridin-2-yl}-propane-1,3-diamine hydrochloride], for which the IC50 in test [1] was < 0.005 µM. Moreover, the EC50 in test [2] was 0.034 µM; in test [3], < 0.014 µM.

These data come from US8673905B2, “Imidazo pyrazines” (Hoffmann-La Roche Inc., priority 2011, dated 2014).
